Values after ≈ are worked out from the molar mass of the structure shown. Values joined by “and” are separate entries in the source; they are usually repeats but may differ in a detail not shown here. Equal entries are not always repeated. Where two headings read alike, the source gives them in different places.
Columns and labels:
[1] = Aggregation tendency by dynamic light scattering (DLS); assay type: physicochemical; settings: for DLS count rate (kcps): 1% DMSO, potassium phosphate buffer 5 mM pH 7.4
Protocol: Stock solutions (10 mM) of test compounds prepared in DMSO, diluted to 1 mM with DMSO and then serially diluted with potassium phosphate buffer (5 mM, pH 7.4, prefiltered before use) to give final concentrations of 1 μM and 10 μM. Final concentration of DMSO was 1% v/v. Measurements were carried out on the Malvern Instrument Zetasizer Nano ZS system equipped with a 4 mW He—Ne laser at 633 nm and detector angle of 90°. Three or more determinations of derived count rates (kilocounts per second, kcps) were obtained from each concentration of test compound, using two separately prepared stock solutions. Data collection was carried out using the software supplied with the instrument. Results are represented as mean±standard deviation. The positive control was benzyl benzoate (250 μM) which gave a count rate of 1180 kcps (±35). The vehicle (phosphate buffer, 1% DMSO) gave a reading of 14.9±0.4.

physchem = settings: for solubility at 24 h: 25 °C; for solubility at 24 h / solubility at 3 h / solubility: pH 7.4, aqueous buffer, kinetic from dmso stock
Protocol: The turbid solution was delivered to the filter plate, agitated for a specific time period and then filtered. The concentration of dissolved compound in the filtrate was determined by uv spectroscopy and referred to pre-constructed calibration curves for solubility determination.
(§1) Determination of aqueous solubility was carried out on Multiscreen® Solubility filter plates (Millipore-MSSLBPC10) from Millipore Corporation (MA, USA). The protocol (PC2445EN00, Millipore Corporation) was followed. Briefly, various concentrations of the test compound were prepared in Universal buffer (pH 7.4)/acetonitrile/DMSO. The UV absorbances of these solutions were obtained at a pre-determined wavelength and used to construct a calibration curve for the test compound. Next, a stock solution of the test compound in DMSO was prepared at a known concentration, diluted with Universal buffer (pH 7.4), dispensed into wells in the Multiscreen Solubility filter plate, and agitated for a period of time. The suspension is then filtered, the filtrate collected and diluted with acetonitrile to give the same solvent composition used to prepare the calibration solutions. The absorbance of the diluted filtrate was then read at the predetermined wavelength and the concentration of the filtrate (taken here to be equivalent to the solubility of the test compound) was determined from the calibration curve.
as §1, with “24 hours at room temperature (25 deg C.). […]” for “a period of time.”, “was” for “is then”, “was” for “was then”, “(equivalent” for “(taken here to be equivalent”, “curve. […] LCMS determinations were made on an Agilent 1200 Series HPLC linked to a AB Sciex Instruments 3200 Q TRAP LC/MS/MS. Separations were carried out on a Phenomenex Luna column [3u, C18(2), 100A, 5×4.6 mm]. […] Quantification was based on the ratio of peak areas of the daughter ion and the mother ion (M+H), normalized against the same ratio obtained for the internal standard. The solubility determinations were carried out in triplicates or more from two different stock solutions.” for “curve.”

[2] = system: MDA-MB-231 human breast cells; assay: Antiproliferative activity / cell viability (MTS, 72 h); settings: Homo sapiens
Protocol: (§2) The relative number of the live cells was determined using the CellTiter® 96 AQueous One Solution Cell Proliferation Assay (Promega). Determinations were made in duplicates or triplicates.
Human breast cancer MDA-MB231, liver cancer HepG2 and lung fibroblast cells were purchased from ATCC (Rockville, Md.). MDA-MB231 cells and IMR-90 cells were grown in DMEM (Sigma Aldrich, Singapore) and EMEM (Sigma Aldrich, Singapore) respectively at 37° C., 5% CO2. DMEM was supplemented with 10% fetal bovine serum (Invitrogen, heat treated at 65 deg C., 30 min), 50 units/L penicillin-G and 50 μg/mL streptomycin. EMEM was supplemented with 10% fetal bovine serum (heat treated as above), 100 mg/L penicillin-G and 100 μg/mL streptomycin.
Cell viability was assessed using CellTitre 96® Aqueous One Solution (Promega, Madison, Wis.) containing the tetrazolium salt 3-(4,5-dimethylthiazol-2-yl)-5-(3-carboxymethoxyphenyl)-2-(4-sulfophenyl)-2H-tetrazolium (MTS). […] Final concentration of DMSO per well was maintained at 0.5% v/v. […] Cell viability was determined from the expression:
The plot was constrained to ≧0 and ≦100%. At least 3 independent determinations of IC50 were made using two different stock solutions of test compound.

[3] = system: PC3 Prostrate cancer cells; assay: as above; assay type: cell-based, human; settings: Homo sapiens
Protocol: as §2

[4] = In vitro stability in rat liver microsomes; assay type: in vitro ADME; settings: for Half-life (min) / Intrinsic Clearance (μL/min/mg): NADPH; for half-life / microsomal CLint: male, pooled rat liver microsomes, pH 7.4, NADPH; for microsomal CLint: read-out: Intrinsic Clearance
Protocol: The mixture was preincubated for 5 min at 37° C. in a shaking water bath, after which the reaction was initiated by adding […] of 10 mM NADPH (freshly prepared in phosphate buffer) to give a final concentration of 1 mM NADPH in the mixture. Aliquots of 50 μL were withdrawn immediately on addition of NADPH (time 0) and subsequently at 5, 15, 30 and 45 min. […] The mixture was then centrifuged at 10,000×g to remove the protein and the content of the test compound in the supernatant was subsequently measured by LCMS.
For each test compound, the metabolic stability of a positive control, midazolam (5 μM) which is a known cytochrome P450 substrate, was concurrently determined to evaluate the adequacy of the experimental conditions. The stability of the test compound to microsomal degradation in the absence of NADPH was also monitored.
Separations were made on a C18 column (Luna 3u C18(2) 100A column (2.0×50 mm, i.d., 3 μM, Phenomenex, Aschaffenburg, Germany or Eclipse Plus C18 column, 4.6×150 mm, i.d., 3.5 μM Agilent Technologies, Palo Alto, Calif., USA) with a security guard cartridge (3.0×4 mm, Agilent Technologies, Palo Alto, Calif., USA). Mobile phase was 0.1% formic acid in acetonitrile-water as mobile phase. Flow rate was set at 0.2 or 0.6 mL/min and the column temperature was at 30° or 40° C. 2 or 5 μL full loop sample injection was used.
Data processing was performed with Analyst™ 1.4.2 software package (Applied Biosystems, MA., USA). The corresponding MRM transition of this candidate was selected and used for peak configuration in Analyst 1.4.2 for semi-quantitation. The peak areas of test compound at different time points were expressed as a % of the peak area of test compound at time=0 min. The resulting % of intact (or remaining) test compound (average of 3 measurements with SD) was plotted against incubation time drug (Figure xx). In vitro half life (T1/2, min) was calculated from Equation 3 (Lu C, Li P, Gallegos R, Uttamsingh V, Xia C Q, Miwa G T, et al. Comparison of intrinsic clearance in liver microsomes and hepatocytes from rats and humans: evaluation of free fraction and uptake in hepatocytes. Drug Metab Dispos 2006; 34: 1600-5). T1/2=0.693/k(min) Equation 3: Where k is the slope of the plot Estimated in vitro clearance was determined from Equation 4: CLint, in vitro=V×0.693/T½ Equation 4: where V (μL/mg)=Volume of incubation/amount of microsomal protein in the incubation (μL/mg) Ames Test for Mutagenicity

[5] = MDA-MB-231, 72 h, read-out: IC50 MDA-MB-231 (μM)
[6] = MDA-MB-231, 72 h, read-out: IC50MDA-MB-231 (μM)
[7] = MDA-MB-231, read-out: IC50 (μM) MDA MB 231
[8] = PC-3M, Table 3, 72 h, mean (SD), read-out: IC50 PC3
[9] = Table 6, from earlier table, read-out: IC50 (μM) PC3

## CCCCCCCCn1cc(CC(N)=O)c2cc(-c3cccc(C)c3)ccc21 [Cysmethynil, 2-[5-(3-methylphenyl)-1-octyl-1H-indolo-3-yl]acetamide, reference compound]
[1]; 1 μM
  DLS count rate (kcps): 22.6 kcps
[1]; 10 μM
  DLS count rate (kcps): 164.0 kcps
physchem
  solubility at 24 h: < 1 µM
  solubility at 3 h: < 1 µM
[2]; [5]
  IC50: 27.4 µM
[2]; [6]
  IC50: 26.8 µM
[2]; [7]
  IC50: 27.4 µM
[3]; [8]
  IC50: 24.8 µM
[3]; [9]
  IC50: 25.2 µM
[4]
  Half-life (min): 44.8 (8.0) min
  Intrinsic Clearance (μL/min/mg): 53.6 (9.0) μL/min/mg
  half-life: 44.8 min
  microsomal CLint: 53.6 µL/min/mg

## CCCCCCCCn1cc(CN(CC)CC)c2cc(-c3cnc(N)nc3)ccc21 [Compound 8-12, 5-(3-Diethylaminomethyl-1-octyl-1H-indol-5-yl)-pyrimidin-2-ylamine]
[1]; 1 μM
  DLS count rate (kcps): 24.5 kcps
[1]; 10 μM
  DLS count rate (kcps): 53.3 kcps
[1]; concentration increased from 1 μM to 10 μM
  fold increase in light scattering: 2
physchem
  solubility at 24 h: 156 µM and 64 µg/mL
  solubility: ~65 µg/mL (≈ 159 µM)
  solubility at 3 h: 166 µM (≈ 67.7 µg/mL)
physchem; 24 h, pH 7.4
  Aqueous Solubility (pH 7.4) 24 hours: 155.9 (6.4) μM
[2]; [5]
  IC50: 2.48 µM
[2]; [6]
  IC50: 2.63 µM
[2]; [7]
  IC50: 2.63 µM
[3]; [8]
  IC50: 2.55 µM
[3]; [9]
  IC50: 2.55 µM
[4]
  Half-life (min): 11.3 (0.4) min
  Intrinsic Clearance (μL/min/mg): 204.0 (9.0) μL/min/mg
  half-life: 11.3 min
  microsomal CLint: 204 µL/min/mg

## CCCCCCCCn1c2c(c3cc(-c4cnc(N)nc4)ccc31)CN(C)CC2 [Compound 305, 8-(2′-amino-pyrimidin-5′-yl)-2-methyl-5-n-octyl-1,2,3,4-tetrahydropyrido[4,3-b]indole]
[1]; 1 μM
  DLS count rate (kcps): 21.0 kcps
[1]; 10 μM
  DLS count rate (kcps): 29.0 kcps
physchem
  solubility at 24 h: 40.6 µM (≈ 15.9 µg/mL)
  solubility: 20 µg/mL (≈ 51.1 µM)
  solubility at 3 h: 49.5 µM (≈ 19.4 µg/mL)
physchem; 24 h, pH 7.4
  Solubility (μM): 40.6 (1.75) μM
[2]; [5]
  IC50: 5.65 µM
[2]; [6]
  IC50: 4.61 µM
[3]; [8]
  IC50: 4.31 µM
[4]
  half-life: 31.6 min
  microsomal CLint: 76.6 µL/min/mg

— US9422238B2, “ICMT inhibitors” (National University of Singapore, priority 2012, dated 2016)
